In patent publication US8029980B2, “Identification and use of agents that modulate oncogenic transcription agent activity” (The Board of Trustees of the University of Illinois, priority 2006, dated 2011):

What was measured:
FoxM1 [1] = test: FoxM1 protein (immunoblot) and mRNA (RT-PCR) levels in C3-Luc cells; type: cell-based, human; settings: 24 hrs
Text: FIG. 3. Mechanisms of FoxM1 inhibition by Siomycin A. (A) C3-Luc cells treated as indicated were harvested after 8 hrs and cell lysates were used for immunoprecipitation of FoxM1 protein. These samples were resolved on an SDS-PAGE gel and immunoblotted to determine total and phospho-FoxM1 levels. (B) C3-Luc cells treated with Siomycin A or DMSO were harvested 24 hrs later and the lysates were used to determine FoxM1 protein levels by immunoblotting. (C) RNA from C3-Luc cells treated with Siomycin A or DMSO for 24 hrs was used to determine levels of FoxM1 mRNA using real-time quantitative RT-PCR.
Cells treated with Siomycin A or DMSO (control) were harvested 24 hrs later and RNA was extracted using the TRIzol reagent (15596-026; Invitrogen). cDNA was prepared from this RNA using the Bio-Rad cDNA synthesis kit. […]
(§1) Immunoblotting was performed as described (18-20) with antibodies specific for p21 (556431; BD Pharmingen), survivin (sc-10811; Santa Cruz), cleaved caspase-3 (9664; Cell Signaling), and β-actin (A5441; Sigma) antibodies. Immunoblot for FoxM1 was done using the previously generated rabbit antisera (2), and phospho-FoxM1 was detected using the MPM2 monoclonal antibody (Upstate Biotechnology) which recognizes the phosphorylated protein sequence phosphoserine/phosphothreonine-proline.

C3-Luc cells = test: Soft agar assay (anchorage-independent growth); type: cell-based, human; settings: 10 μM, 1 μg/mL doxycycline, 4 weeks
Description: The assay was done as described previously (21, 22). Briefly C3-Luc cells were plated subconfluently in six-well plates in 0.7% agarose on a 1.4% agarose bed in the presence or absence of 10 μM of Siomycin A and 1 μg/mL of doxycycline. Three times a week, the tissue-culture medium containing these agents was replaced. After 4 weeks, cell colonies that were larger than 1 mm in size were scored.

293 and Hela cells = test: Sensitization to TNF-alpha-induced apoptosis (cleaved caspase-3 immunoblot); type: cell-based, human; settings: 1 μM Siomycin A and 10 ng/ml TNF-alpha, 24 hours
Description: FIG. 14. […] 293 (A) and Hela (B) cells were pretreated with the indicated concentrations of Sulfazalazine (control) for overnight. The following day the cells were treated with 1 μM Siomycin A and 10 ng/ml TNF-alpha as indicated. Twenty-four hours later the cells were harvested and the total cell lysates were used to determine the level of cleaved caspase-3. β-actin was used as the loading control.

FoxM1 [2] = target: T1, FoxM1 (Homo sapiens, UniProt Q08050); test: FoxM1 immunoprecipitation and MPM2 immunoblot for phospho-FoxM1 in C3-Luc cells; type: cell-based; settings: 100 μM, 8 hrs
T1 construct: endogenous in cells; host or cells: C3-Luc (U2OS)
T1 sequence (Q08050 1-763): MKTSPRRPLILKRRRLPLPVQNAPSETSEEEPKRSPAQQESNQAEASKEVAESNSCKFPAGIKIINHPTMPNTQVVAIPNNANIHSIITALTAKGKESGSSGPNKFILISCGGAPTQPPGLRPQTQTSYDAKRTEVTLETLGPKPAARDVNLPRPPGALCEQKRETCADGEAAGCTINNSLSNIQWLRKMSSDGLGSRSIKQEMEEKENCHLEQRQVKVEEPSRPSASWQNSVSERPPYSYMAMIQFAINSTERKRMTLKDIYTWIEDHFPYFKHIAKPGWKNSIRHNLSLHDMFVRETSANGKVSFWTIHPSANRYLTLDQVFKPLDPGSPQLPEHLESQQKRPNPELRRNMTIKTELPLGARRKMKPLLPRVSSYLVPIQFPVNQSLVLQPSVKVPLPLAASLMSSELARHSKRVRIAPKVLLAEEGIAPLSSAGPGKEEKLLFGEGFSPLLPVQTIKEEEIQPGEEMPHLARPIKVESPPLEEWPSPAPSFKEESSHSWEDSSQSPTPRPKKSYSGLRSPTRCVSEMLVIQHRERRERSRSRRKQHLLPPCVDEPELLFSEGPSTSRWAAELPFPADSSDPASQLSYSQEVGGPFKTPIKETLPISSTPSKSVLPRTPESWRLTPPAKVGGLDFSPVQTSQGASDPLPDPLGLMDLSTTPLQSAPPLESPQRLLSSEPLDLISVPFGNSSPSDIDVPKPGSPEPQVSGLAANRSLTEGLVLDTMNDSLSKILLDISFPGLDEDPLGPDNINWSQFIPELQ
Description: as §1
For the immunoprecipitation experiment, FoxM1 antisera (2) was used along with protein A-sepharose to pull down FoxM1 protein, which was resolved on an SDS-PAGE gel and transferred to PVDF membrane. The total and phospho-FoxM1 levels were determined by using the antibodies described above.
Based on this observation, we hypothesized that Siomycin A may inhibit FoxM1 transcriptional activity by blocking this phosphorylation event. In order to test this hypothesis, we treated C3-Luc cells with DMSO (control) or 100 μM of Siomycin A for 8 hrs and immunoprecipitated FoxM1 from the lysates. We then analyzed these samples for phospho-FoxM1 levels by immunoblotting with MPM2, a monoclonal antibody that recognizes phosphorylated Cdk1 and Cdk2 sites.

Structure (SMILES): C=C(NC(=O)C(=C)NC(=O)c1csc(C2=N[C@@H]3c4csc(n4)[C@H]4NC(=O)c5csc(n5)[C@H]([C@](C)(O)[C@@H](C)O)NC(=O)[C@H]5CSC(=N5)/C(=C/C)NC(=O)[C@H]([C@@H](C)O)NC(=O)c5csc(n5)[C@]3(CC2)NC(=O)[C@H](C)NC(=O)C(=C)NC(=O)C(=C)NC(=O)[C@H](C(C)C)N[C@@H]2C=Cc3c([C@H](C)O)cc(nc3[C@H]2O)C(=O)O[C@@H]4C)n1)C(N)=O [Siomycin A]
- FoxM1 mRNA levels (FoxM1 [1]): significantly decreased
- FoxM1 protein levels (FoxM1 [1]): significantly decreased
- anchorage-independent growth (number of colonies on soft agar) (C3-Luc cells): dramatically reduced the anchorage-independent growth to less than basal untreated value
- sensitization to TNF-alpha-induced apoptosis (293 and Hela cells): sensitize human cancer cells to TNF-alpha-induced apoptosis
- phospho-FoxM1 levels (FoxM1 [2]): decrease in phospho-FoxM1
- total FoxM1 levels (FoxM1 [2]): only marginally reduced
